Assay results reported in patent EP1086695B1, “Antiviral compositions comprising yohimbine as active principle” (Leone, Enzo, priority 1999, dated 2001).
Where a name gives a salt, the structure may show the parent alone.

Key:
herpes virus 1 or 2 = assay: Example 1: clinical treatment of herpes; assay type: in vivo; conditions: 5 mg/day; 30 patients
Procedure: In the course of 7 years, 30 patients suffering from herpes virus 1 or 2 were treated, the said patients still being currently under supervision.
The treatment involved the use of 5 mg/day of yohimbine HCI until resolution of the dermatological affections.

[1] = tested on: herpetic keratoconjunctivitis; assay: Example 2: clinical treatment of herpetic keratitis; assay type: in vivo, subjects
Description: These re-occurrences of acute episodes were, however, mastered with three-week cycles of treatment using the drug in question, with three-week rest intervals between one cycle and another.

influenza = assay: Example 3: clinical treatment of influenza syndromes; assay type: in vivo; conditions: 5 mg/day, 7-10 day treatment; including elderly patients and children
HSV-1 = conditions: against HSV-1 in their screening system; cited from earlier work
herpes progenitalis = assay: Example 4: treatment of herpes progenitalis in a serious form (single case); assay type: in vivo, person
Procedure: The patient took 5 mg/day of yohimbine HCI for more than one year with three-week rest intervals every three months, using a galenical preparation consisting of: […]

[2] = Doses effective as antiviral agent (general finding); assay type: in vivo; conditions: expressed as free base
Procedure: The preferred dosage is 5 mg/day from the onset of the first signs of the viral infection up to its cure. In the case of long courses of treatment, it is preferable to follow a scheme of two- or three-month cycles with intervals of rest of 10-15 days. Higher doses than the range indicated may result in a failure of the curative effect, this being due to the peculiarity of yohimbine, observed on various organs and apparatus, namely of stimulating an action (for example, splenocontraction) at a certain dose level, and the opposite action (splenodilation) at higher dose levels. Doses below the limit indicated may be therapeutically ineffective.

COC(=O)[C@@H]1[C@H]2C[C@H]3c4[nH]c5ccccc5c4CCN3C[C@@H]2CC[C@@H]1O [yohimbine HCI, yohimbine hydrochloride]
relapse (herpes virus 1 or 2): considerable reduction in the number of cases of relapse
relapse ([1]; 5 mg/day, 10 subjects): the cases of relapse were less frequent and of shorter duration
pain ([1]; 5 mg/day, in periods when the affection became more acute): the pain involved became more tolerable
tolerability of treatment ([1]; treatment lasting several years, three-week cycles): without any problems of any sort arising
outcome of influenza (influenza): complete resolution
antiherpes activity (HSV-1): inactive
side effect (herpes progenitalis; 5 mg/day for more than one year): did not reveal any side effect
lesions and vesicular eruptions (herpes progenitalis; 5 mg/day tablet, three-week rest intervals every three months): within approximately six months led to the disappearance of the lesions and of the vesicular eruptions
recurrence (herpes progenitalis; follow-up after treatment): Only one other slight episode of recurrence occurred five years later

COC(=O)[C@@H]1[C@H]2C[C@H]3c4[nH]c5ccccc5c4CCN3C[C@@H]2CC[C@@H]1O [yohimbine, methyl 17-alpha-hydroxy-20-alpha-yohimban-16-beta-carboxylate]
doses at which yohimbine is effective as antiviral agent [2]: 3 to 10 mg/day

Nc1nc2c(ncn2COCCO)c(=O)[nH]1 [acyclovir]
benefit in terms of recidivation ([1]; earlier classic treatment of the same 10 subjects): without any benefit
outcome of earlier treatment (herpes progenitalis; earlier treatment with specific drugs): unsuccessfully
